Assay results from patent US20060069132A1, “Azolecarboxamide herbicides” (priority 2004, published 2006).

Legend:
woolly cupgrass = assay: Test C pre-/postemergence herbicide test; format: in vivo, Eriochloa villosa; conditions: preemergence
In short: (§1)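 Seeds were planted and sprayed preemergence with test chemicals in a non-phytotoxic solvent mixture containing surfactant; postemergence treatments went onto plants 2 to 18 cm tall (1- to 4-leaf stage). After 12 to 14 days in a greenhouse, injury was rated visually against untreated controls on a 0–100 scale.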

redroot pigweed = assay: Test A pre-/postemergence herbicide test; format: in vivo, Amaranthus retroflexus
In short: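 Seeds sown in sandy loam received a preemergence directed soil spray of compound in non-phytotoxic solvent with surfactant; postemergence plants (2–10 cm, one- to two-leaf stage) were sprayed to runoff at the same time. After ~10 days in greenhouse, injury was rated visually versus untreated controls (0 = no effect, 100 = complete control).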

common ragweed = assay: Test C pre-/postemergence herbicide test; format: in vivo, Ambrosia elatior; parameters: key to Plant response rating, Ragweed: 0 = no effect, 100 = complete control; conditions: preemergence
In short: as §1

soybean = assay: Test C pre-/postemergence herbicide test; format: in vivo, Glycine max; conditions: preemergence
In short: as §1

ducksalad = assay: Test C flooded paddy test; format: in vivo, Heteranthera limosa
rice = assay: Test C flooded paddy test; format: in vivo, Oryza sativa
In short: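 Plants were grown to the 1- to 4-leaf stage (2–18 cm) and then treated postemergence, or grown to the 2-leaf stage for the flooded paddy test. They were held in a greenhouse for 12 to 14 days and then scored by eye against controls, where 0 is no effect and 100 is complete control.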

blackgrass = assay: Test B postemergence herbicide test; format: in vivo, Alopecurus myosuroides; conditions: postemergence
In short: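 Postemergence plants were sprayed with formulated test chemicals at 2 to 18 cm height (1- to 4-leaf stage); paddy species were grown to the 2-leaf stage. After 13 to 15 days in a greenhouse, injury was rated visually against untreated controls on a 0–100 scale (0 = no effect, 100 = complete control).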

corn = assay: Test B pre-/postemergence herbicide test; format: in vivo, Zea mays; conditions: for Corn plant response rating: postemergence
In short: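 Seeds were planted and treated preemergence with compounds formulated in a non-phytotoxic solvent mixture containing surfactant, while plants at the 1- to 4-leaf stage (2 to 18 cm) received postemergence sprays. Flooded paddy plants were grown to the 2-leaf stage. After 13 to 15 days in a greenhouse, injury was visually rated 0–100 against untreated controls.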

[1] = 500 g ai/ha, scale 0 to 100 (0 no effect, 100 complete control), visual, 12 to 14 days
[2] = 125 g ai/ha, scale 0 to 100 (0 no effect, 100 complete control)
[3] = 250 g ai/ha, scale of 0 to 100, 0 is no effect, 100 is complete control
[4] = 500 g ai/ha, visual rating after 12 to 14 days, scale 0 to 100 (0 no effect, 100 complete control)
[5] = 125 g ai/ha, visual rating, scale 0 (no effect) to 100 (complete control)
[6] = 500 g ai/ha, scale 0 to 100, 0 is no effect, 100 is complete control

SMILES: CCn1nc(C(C)(C)C)cc1C(=O)Nc1cncc(C(=O)N(C)C)n1 [Compound 287]
- Plant response rating, Cupgrass, Woolly (woolly cupgrass; 62 g ai/ha, scale 0 to 100): 0
- Plant response rating, Cupgrass, Woolly (woolly cupgrass; 125 g ai/ha, scale 0 (no effect) to 100 (complete control), visual, 12 to 14 days): 0
- Plant response rating, Cupgrass, Woolly (woolly cupgrass; 250 g ai/ha, scale 0-100): 10
- Plant response rating, Cupgrass, Woolly (woolly cupgrass; [1]): 35
- Pigweed plant response rating (redroot pigweed; Postemergence, 500 g ai/ha, 0 to 100 scale, 0 no effect, 100 complete control): 50
- Plant response rating, Pigweed (redroot pigweed; Postemergence, 2000 g ai/ha, 0 to 100 scale, 0 no effect, 100 complete control): 80
- Pigweed plant response rating (redroot pigweed; Preemergence, 2000 g ai/ha, visual rating, 0 to 100 scale (0 no effect, 100 complete control)): 100
- Pigweed plant response rating (redroot pigweed; preemergence, 500 g ai/ha, visual injury, 0 to 100 scale (0 no effect, 100 complete control)): 100
- Plant response rating, Ragweed (common ragweed; 62 g ai/ha, scale 0 to 100): 100
- Plant response rating, Ragweed (common ragweed; 250 g ai/ha, scale 0-100): 100
- Plant response rating, Ragweed (common ragweed; [1]): 100
- Plant response rating, Soybean (soybean; 62 g ai/ha, scale 0 to 100): 0
- Plant response rating, Soybean (soybean; 250 g ai/ha, scale 0-100): 85
- Plant response rating, Soybean (soybean; [1]): 95
- Ducksalad plant response rating (ducksalad; 62 g ai/ha, scale 0 to 100): 0
- Ducksalad plant response rating (ducksalad; [2]): 30
- Ducksalad plant response rating (ducksalad; [3]): 40
- Plant response rating, Ducksalad (ducksalad; [4]): 45
- Rice plant response rating (rice; 62 g ai/ha, scale 0 to 100): 0
- Rice plant response rating (rice; [2]): 20
- Rice plant response rating (rice; [3]): 25
- Plant response rating, Rice (rice; [4]): 55
- Blackgrass plant response rating (blackgrass; [5]): 10
- Blackgrass plant response rating (blackgrass; [6]): 30
- Corn plant response rating (0 to 100 scale) (corn; 125 g ai/ha, 0 = no effect, 100 = complete control, preemergence): 0
- Corn plant response rating (corn; [5]): 0
- Plant response rating, Corn (corn; 500 g ai/ha, visual rating, 0 = no effect, 100 = complete control, preemergence): 30
- Corn plant response rating (corn; [6]): 70
